According to patent publication US10738062B2, “Chromane-substituted tetracyclic compounds and uses thereof for the treatment of viral diseases” (Merck Sharp & Dohme Corp., priority 2016, dated 2020):
Like-named read-outs stand apart in the source and are kept apart here.

Legend:
Set-up in all cases: species or system Hepatitis C virus
Conditions in all cases: replicon RNA by real time PCR, day 3
[1] = tested on: HCV replicon 1A; assay: Cell-based HCV replicon assay (Replicon Assay A), replicon 1A
Description: (§1) To measure cell-based anti-HCV activity of compounds of the present invention, two complimentary assays were employed using various replicons. In the first assay (“Replicon Assay A”), replicon cells were seeded at 2000 cells/well in 384-well 384-well flat bottom tissue culture treated clear bottom plate (Corning 3707) in the presence of the test compound. Various concentrations of test compound, typically in 10 serial dilutions, were added to the assay mixture, with the starting concentration ranging from 333.3 nM to 1.667 nM. The final concentration of DMSO was 0.5%. Fetal bovine serum was 5%, in the assay media. Cells were harvested on day 3 by removing media and washing the cells with a suitable wash buffer. The cells were lysed with the addition of 1× Qiagen lysis buffer (Cat #1062731). The replicon RNA level was measured using real time PCR (TaqMan® EZ RT-PCR, Applied Biosystems 403028) with the following primers and probes: […]
(§2) Cyclophilin RNA was used as endogenous control and was amplified in the same reaction as NS5B (multiplex PCR). The real-time RT-PCR reactions were run on ABI PRISM 7900HT Sequence Detection System using the following program: 50° C. for 2 minutes, 60° C. for 30 minutes, 95° C. for 5 minutes, 40 cycles of 94° C. for 20 sec, 55° C. for 1 minutes.
(§3) The amount of HCV replicon RNA per cell was quantified using a linear regression curve for a known nanogram (ng) amount of HCV replicon total RNA. This was established by plotting the Cycle Threshold values (Ct) from the Neo probe and primer set versus the log (ng) for each HCV replicon total RNA standard. The amount of HCV RNA for each replicon sample was calculated by taking the sample's Ct value, minus the line intercept, divided by the slope of the line. Similarly, the amount of Cyclophilin mRNA per cell was also quantified using a linear regression curve for a known nanogram (ng) amount of HCV replicon total RNA. Again, this was established by plotting the Cycle Threshold values (Ct) from the Cyclophilin probe and primer set versus the log (ng) for each HCV replicon total RNA standard.
(§4) The real-time RT-PCR reactions were run on ABI PRISM 7900HT or Viia7 Sequence Detection System using the following program: 48° C. for 30 minutes, 95° C. for 10 minutes, 40 cycles of 95° C. for 15 sec, 60° C. for 1 minutes. The 50% effective concentration (EC50) was the drug concentration necessary to achieve an increase in the cycle threshold (CT) of 1 over the projected baseline CT.
(§5) Data was obtained for various compounds of the present invention using the methods described in the Example above, and is presented in the table immediately below. EC50 data for replicons 1A, 1AY93H and 2B were obtained using Replicon Assay A and EC50 data for replicon 1B was obtained using Replicon Assay B.

[2] = tested on: HCV replicon 2B; assay: Cell-based HCV replicon assay (Replicon Assay A), replicon 2B
Description: as §1, §2, §3, §4, §5

[3] = tested on: HCV replicon 1A Y93H; assay: Cell-based HCV replicon assay (Replicon Assay A), replicon 1AY93H
Description: as §1, §2, §3, §4, §5

[4] = read-out: EC50 replicon 2B, Replicon Assay A
[5] = read-out: EC50 replicon 1A Y93H, Replicon Assay A

## COC(=O)NC(C(=O)N1CCC[C@H]1c1ncc(-c2ccc3c(c2)cc2n3C(c3ccc4c(c3)OC(C)CC4)Oc3cc(-c4cnc([C@@H]5CCCN5C(=O)[C@@H](NC(=O)OC)C(C)C)[nH]4)cc(F)c3-2)[nH]1)C1CCOC(C)(C)C1 (single isomer, unassigned) [Compound 61]
[1]; Hepatitis C virus, 72 h
  EC50: 2.3 pM
[2]; [4]
  EC50: 215 pM
[3]; [5]
  EC50: 1490 pM

## COC(=O)NC(C(=O)N1CCC[C@H]1c1ncc(-c2ccc3c(c2)cc2n3C(c3ccc4c(c3)OC(C)CC4)Oc3cc(-c4cnc([C@@H]5CCCN5C(=O)[C@@H](NC(=O)OC)C(C)C)[nH]4)cc(F)c3-2)[nH]1)C1CCOC(C)(C)C1 (single isomer, unassigned) [Compound 62]
[1]
  EC50: 1.9 pM
[2]; [4]
  EC50: 253 pM
[3]; [5]
  EC50: 516 pM

## COC(=O)NC(C(=O)N1[C@@H]2C[C@@H]2C[C@H]1c1ncc(-c2ccc3c(c2)cc2n3C(c3ccc4c(c3)CCCO4)Oc3cc(-c4cnc([C@@H]5CCCN5C(=O)[C@@H](NC(=O)OC)C(C)C)[nH]4)cc(F)c3-2)[nH]1)C1C[C@@H](C)O[C@@H](C)C1 (single isomer, unassigned) [Compound 66]
[1]
  EC50: 3.4 pM
[2]; [4]
  EC50: 2340 pM
[3]; [5]
  EC50: 172 pM

## COC(=O)NC(C(=O)N1[C@@H]2C[C@@H]2C[C@H]1c1ncc(-c2ccc3c(c2)cc2n3C(c3ccc4c(c3)OCCC4)Oc3cc(-c4cnc([C@@H]5CCCN5C(=O)[C@@H](NC(=O)OC)C(C)C)[nH]4)cc(F)c3-2)[nH]1)C1C[C@@H](C)O[C@@H](C)C1 (single isomer, unassigned) [Compound 67]
[1]; Hepatitis C virus, 72 h
  EC50: 1.2 pM
[2]; [4]
  EC50: 607 pM
[3]; [5]
  EC50: 391 pM

## COC(=O)NC(C(=O)N1CCC[C@H]1c1ncc(-c2ccc3c(c2)cc2n3C(c3ccc4c(c3)CCCO4)Oc3cc(-c4cnc([C@@H]5CCCN5C(=O)[C@@H](NC(=O)OC)C(C)C)[nH]4)cc(F)c3-2)[nH]1)C1C[C@@H](C)O[C@@H](C)C1 (single isomer, unassigned) [Compound 73]
[1]; Hepatitis C virus, 72 h
  EC50: 3.1 pM
[2]; [4]
  EC50: 791 pM
[3]; [5]
  EC50: 1360 pM

## COC(=O)NC(C(=O)N1CCC[C@H]1c1ncc(-c2ccc3c(c2)cc2n3C(c3ccc4c(c3)CCCO4)Oc3cc(-c4cnc([C@@H]5CCCN5C(=O)[C@@H](NC(=O)OC)C(C)C)[nH]4)cc(F)c3-2)[nH]1)C1C[C@@H](C)O[C@@H](C)C1 (single isomer, unassigned) [Compound 74]
[1]
  EC50: 2.5 pM
[2]; [4]
  EC50: 234 pM
[3]; [5]
  EC50: 91 pM

## COC(=O)NC(C(=O)N1CCC[C@H]1c1ncc(-c2ccc3c(c2)cc2n3C(c3ccc4c(c3)OCCC4)Oc3cc(-c4cnc([C@@H]5CCCN5C(=O)[C@@H](NC(=O)OC)C(C)C)[nH]4)cc(F)c3-2)[nH]1)C1C[C@@H](C)O[C@@H](C)C1 (single isomer, unassigned) [Compound 75]
[1]; Hepatitis C virus, 72 h
  EC50: 1.8 pM
[2]; [4]
  EC50: 296 pM
[3]; [5]
  EC50: 1270 pM

## COC(=O)NC(C(=O)N1CCC[C@H]1c1ncc(-c2ccc3c(c2)cc2n3C(c3ccc4c(c3)OCCC4)Oc3cc(-c4cnc([C@@H]5CCCN5C(=O)[C@@H](NC(=O)OC)C(C)C)[nH]4)cc(F)c3-2)[nH]1)C1C[C@@H](C)O[C@H](C)C1 (single isomer, unassigned) [Compound 77]
[1]; Hepatitis C virus, 72 h
  EC50: 1.5 pM
[2]; [4]
  EC50: 99 pM
[3]; [5]
  EC50: 496 pM

## COC(=O)NC(C(=O)N1[C@@H]2C[C@@H]2C[C@H]1c1ncc(-c2ccc3c(c2)cc2n3C(c3ccc4c(c3)OCCC4)Oc3cc(-c4cnc([C@@H]5CCCN5C(=O)[C@@H](NC(=O)OC)C(C)C)[nH]4)cc(F)c3-2)[nH]1)C1CCO[C@H](C)C1 (single isomer, unassigned) [Compound 81]
[1]; Hepatitis C virus, 72 h
  EC50: 2 pM
[2]; [4]
  EC50: 270 pM
[3]; [5]
  EC50: 188 pM

## COC(=O)NC(C(=O)N1CCC[C@H]1c1ncc(-c2ccc3c(c2)cc2n3C(c3ccc4c(c3)CCCO4)Oc3cc(-c4cnc([C@@H]5CCCN5C(=O)[C@@H](NC(=O)OC)C(C)C)[nH]4)cc(C)c3-2)[nH]1)C1C[C@@H](C)O[C@@H](C)C1 (single isomer, unassigned) [Compound 83]
[1]; Hepatitis C virus, 72 h
  EC50: 3.9 pM
[2]; Hepatitis C virus, 72 h, read-out: EC50 replicon 2B, Replicon Assay A
  EC50: 160 pM
[3]; Hepatitis C virus, 72 h, read-out: EC50 replicon 1A Y93H, Replicon Assay A
  EC50: 594 pM
